# Measured values reported in US20230301968A1 (ZEPHAPHARM LTD, priority 2020, published 2023).
# Tests used:
# Format in all cases: in vitro ADME
# CYP2D6 = biological target: T1, CYP2D6 (Homo sapiens, UniProt P10635); assay: Cytochrome P450 reaction phenotyping, recombinant CYP2D6
# T1 construct: purchased
# Protocol: (§1) The amount of test compound remaining at each time point was analysed by LC-MS/MS. Incubations in control recombinant enzymes were also performed to assess non-enzymatic mediated stability.
# (§2) Incubations were also performed using control Bactosomes™ (no cytochrome P450 enzymes present) to reveal any non-enzymatic degradation. Control compounds known to be metabolised specifically by each P450 isoform were included. All incubations were performed singularly for each test compound. […] The reactions were stopped by transferring an aliquot of incubate to quench solvent at the appropriate time points, in a 1:3 ratio. The termination plates were centrifuged at 3,000 rpm for 20 min at 4° C. to precipitate the protein. Following protein precipitation, the sample supernatants were analysed using LC-MS/MS, along with internal standard (1:1 supernatant to internal standard).
# (§3) Following correction for any loss in the incubations with the control Bactosomes™, from a plot of In peak area ratio (compound peak area/internal standard peak area) against time, the gradient of the line was determined. Subsequently, half-life (t½) was calculated using the equations below: […]
# CYP2B6 = biological target: T2, CYP2B6 (Homo sapiens, UniProt P20813); assay: Cytochrome P450 reaction phenotyping, recombinant CYP2B6
# T2 construct: purchased
# T2 sequence (P20813 1-491): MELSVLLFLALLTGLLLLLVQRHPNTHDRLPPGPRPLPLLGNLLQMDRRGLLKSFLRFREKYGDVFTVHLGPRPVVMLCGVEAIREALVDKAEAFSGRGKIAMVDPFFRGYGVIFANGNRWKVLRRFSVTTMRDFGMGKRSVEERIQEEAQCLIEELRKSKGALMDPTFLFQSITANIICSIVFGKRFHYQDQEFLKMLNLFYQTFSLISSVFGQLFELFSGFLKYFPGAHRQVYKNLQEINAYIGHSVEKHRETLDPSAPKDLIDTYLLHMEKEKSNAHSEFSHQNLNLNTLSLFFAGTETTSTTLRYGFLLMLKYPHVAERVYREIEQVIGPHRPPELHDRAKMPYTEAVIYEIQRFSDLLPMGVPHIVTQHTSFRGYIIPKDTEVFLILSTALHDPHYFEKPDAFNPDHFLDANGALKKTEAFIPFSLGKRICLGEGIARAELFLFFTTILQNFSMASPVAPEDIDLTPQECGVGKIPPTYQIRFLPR
# Protocol: as §1, §2, §3
# CYP1A2 = biological target: T3, CYP1A2 (Homo sapiens, UniProt P05177); assay: Cytochrome P450 reaction phenotyping, recombinant CYP1A2
# T3 construct: purchased
# T3 sequence (P05177 1-516): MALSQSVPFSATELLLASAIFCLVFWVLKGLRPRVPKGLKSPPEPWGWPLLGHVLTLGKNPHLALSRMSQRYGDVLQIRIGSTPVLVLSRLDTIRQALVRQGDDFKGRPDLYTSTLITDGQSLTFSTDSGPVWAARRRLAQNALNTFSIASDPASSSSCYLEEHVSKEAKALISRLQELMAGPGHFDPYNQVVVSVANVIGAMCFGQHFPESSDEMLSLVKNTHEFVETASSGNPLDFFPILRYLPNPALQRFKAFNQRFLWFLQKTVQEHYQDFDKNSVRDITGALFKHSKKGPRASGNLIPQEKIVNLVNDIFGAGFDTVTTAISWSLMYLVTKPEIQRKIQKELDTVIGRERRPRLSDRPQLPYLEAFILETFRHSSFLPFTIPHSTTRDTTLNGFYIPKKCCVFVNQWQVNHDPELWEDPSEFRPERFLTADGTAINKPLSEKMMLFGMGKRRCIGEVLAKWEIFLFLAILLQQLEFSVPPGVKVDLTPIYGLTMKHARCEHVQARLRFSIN
# Protocol: as §1, §2, §3
# CYP2C8 = biological target: T4, CYP2C8 (Homo sapiens, UniProt P10632); assay: Cytochrome P450 reaction phenotyping, recombinant CYP2C8; conditions: for t½: 1 µM substrate, recombinant CYP2C8, NADPH
# T4 construct: purchased
# T4 sequence (P10632 1-490): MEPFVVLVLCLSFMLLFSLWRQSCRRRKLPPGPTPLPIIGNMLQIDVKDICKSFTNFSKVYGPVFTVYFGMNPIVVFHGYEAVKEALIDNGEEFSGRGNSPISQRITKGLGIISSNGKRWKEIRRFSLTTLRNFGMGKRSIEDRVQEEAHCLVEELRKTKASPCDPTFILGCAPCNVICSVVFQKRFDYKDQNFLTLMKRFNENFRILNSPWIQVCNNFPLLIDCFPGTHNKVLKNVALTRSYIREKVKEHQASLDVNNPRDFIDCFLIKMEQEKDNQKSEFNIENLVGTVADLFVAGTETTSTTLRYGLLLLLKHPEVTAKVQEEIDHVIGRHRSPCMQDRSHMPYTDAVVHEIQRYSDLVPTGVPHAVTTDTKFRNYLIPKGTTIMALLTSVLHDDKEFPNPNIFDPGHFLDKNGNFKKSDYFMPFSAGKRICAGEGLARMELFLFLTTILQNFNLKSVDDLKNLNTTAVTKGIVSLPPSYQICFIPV
# Protocol: as §1, §2, §3
# T1 sequence (P10635 whole entry): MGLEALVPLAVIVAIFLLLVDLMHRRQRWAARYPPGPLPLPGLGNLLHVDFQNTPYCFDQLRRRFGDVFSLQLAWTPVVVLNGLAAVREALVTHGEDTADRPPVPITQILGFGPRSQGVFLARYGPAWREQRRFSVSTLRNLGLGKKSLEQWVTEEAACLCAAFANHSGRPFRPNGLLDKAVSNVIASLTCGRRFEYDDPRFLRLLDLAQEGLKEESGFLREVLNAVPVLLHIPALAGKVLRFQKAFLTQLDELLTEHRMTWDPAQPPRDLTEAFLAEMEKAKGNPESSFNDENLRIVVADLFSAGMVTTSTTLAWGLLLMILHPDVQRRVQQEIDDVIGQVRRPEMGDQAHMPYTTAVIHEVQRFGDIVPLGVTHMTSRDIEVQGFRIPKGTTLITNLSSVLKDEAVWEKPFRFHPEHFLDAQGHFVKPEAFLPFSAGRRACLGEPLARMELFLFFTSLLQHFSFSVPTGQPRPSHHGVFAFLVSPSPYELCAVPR
structure (smiles),measurement,setting,value
"COC(=O)Nc1nc2cc(C(=O)c3ccc(F)cc3)ccc2[nH]1 [Flubendazole, methyl N-[6-(4-fluorobenzoyl)-1H-benzimidazol-2-yl]carbamate]",t½,"CYP2D6; 1 µM substrate, recombinant CYP2D6, NADPH",2.45 h
same,Compound Remaining (% of 0 min),"CYP2D6; CYP2D6, 0 min",100%
same,Compound Remaining (% of 0 min),"CYP2D6; CYP2D6, 5 min",93.1%
same,Compound Remaining (% of 0 min),"CYP2D6; CYP2D6, 15 min",90.0%
same,Compound Remaining (% of 0 min),"CYP2D6; CYP2D6, 30 min",85.6%
same,Compound Remaining (% of 0 min),"CYP2D6; CYP2D6, 45 min",78.9%
same,half-life at 1 µM,"CYP2D6; human, pH 7.4, 1 µM substrate, recombinant CYP2D6, NADPH, read-out: t½",≥ 2.45 h
same,Compound Remaining (% of 0 min),"CYP2B6; CYP2B6, 0 min",100%
same,Compound Remaining (% of 0 min),"CYP2B6; CYP2B6, 5 min",96.5%
same,Compound Remaining (% of 0 min),"CYP2B6; CYP2B6, 15 min",95.8%
same,Compound Remaining (% of 0 min),"CYP2B6; CYP2B6, 30 min",97.8%
same,Compound Remaining (% of 0 min),"CYP2B6; CYP2B6, 45 min",104%
same,half-life at 1 µM,"CYP2B6; human, pH 7.4, 1 µM substrate, recombinant CYP2B6, NADPH, minus value = not metabolised, read-out: t½",≥ 2.45 h
same,Compound Remaining (% of 0 min),"CYP1A2; CYP1A2, 0 min",100%
same,Compound Remaining (% of 0 min),"CYP1A2; CYP1A2, 5 min",38.6%
same,Compound Remaining (% of 0 min),"CYP1A2; CYP1A2, 15 min",1.30%
same,Compound Remaining (% of 0 min),"CYP1A2; CYP1A2, 30 min",0.0440%
same,Compound Remaining (% of 0 min),"CYP1A2; CYP1A2, 45 min",0.002%
same,half-life at 1 µM,"CYP1A2; human, pH 7.4, 1 µM substrate, recombinant CYP1A2, NADPH, 30 and 45 minute time points excluded, read-out: t½",2.34 min
same,t½,CYP2C8,11.5 h
same,t½,CYP2C8; listed as flubendazole,≥ 2.45 h
same,Compound Remaining (% of 0 min),"CYP2C8; CYP2C8, 0 min",100%
same,Compound Remaining (% of 0 min),"CYP2C8; CYP2C8, 5 min",100%
same,Compound Remaining (% of 0 min),"CYP2C8; CYP2C8, 30 min",99.4%
same,Compound Remaining (% of 0 min),"CYP2C8; CYP2C8, 45 min",95.3%
